Assay results from publication PMC4914250, “Cancer therapeutic approach based on conformational stabilization of mutant p53 protein by small peptides” (Oncotarget, 2016).

Test system: mutp53^R175H
Test: ELISA of mutp53 conformation (PAb1620/PAb240), H1299-p53^R175H cell extract
Format: biochemical, human
Details: score 0-6 compared to positive control; mutp53 conformation
Source text: (§1) A total of close to 350 peptides, deduced from the phage sequences, were synthesized and subjected to several alternative complementary methods of semi high-throughput functional screening; we refer to these peptides as pCAPs (p53 conformation activating peptides). First, we used cell-free ELISA assays to evaluate the effect of individual peptides on mutp53 conformation and DNA binding in vitro. For conformation analysis (Figure 2A), microtiter plates were coated with PAb240, PAb1620 or PAb421 as control, then the effect of each peptide on reactivity of mutp53 with these antibodies was examined; WTp53 served as a positive control for PAb1620 reactivity.
(§2) Cell extracts were added to ELISA plates coated with the indicated antibodies to allow mutp53 to react with the peptides and antibodies. αp53-HRP Ab was used for assessment of p53 levels. Numbers represent ratio of absorbance between the PAb1620 and PAb240 samples. All reads were normalized to the control […] reading of each extract. MCF7 (WTp53) and H1299-mutp53^A135V (tsp53) cells were used as positive controls for the WTp53 conformation (1620/240 ratio equals or exceeds 5:1). […] 96 well plates were coated with anti-p53 antibody, cell extracts containing p53 were reacted with oligonucleotides that contain a p53RE consensus binding site, labeled with biotin, in the presence or absence (NT) of test peptides. Streptavidin-HRP is used to quantify the amount of oligos in the well. TMB assay was performed to determine bound mutp53 levels (450nm). MCF7 and the H1299-mutp53^A135V(TS) cells serve as positive controls for WTp53. C.and D. - Bar graphs illustrating the effect of various selected peptides on mut-p53 dependent expression on cell viability. […] D, ES2 cells expressing endogenous mutp53 (blue bars) and ES2 cells knocked out for p53 by CRISPR construct (light blue bars). Cell lines were treated with selected peptides, Cis-platinum was used as positive control for cell death. 48 hours after treatment, cells were washed with PBS, and the remaining attached cells were stained with Crystal violet and washed 4 times with PBS. Stained cells were dissolved in 10% acetic acid and plates were taken for optical density measurement at […]. TEXT PRINTED IN THE PICTURE: (A) pCAP1: 0.87 | (A) pCAP2: 0.53 | (A) pCAP3: 0.59 | (A) pCAP4: 0.59 | (A) pCAP5: 0.60 | (A) pCAP6: 0.75 | (A) pCAP23: 1.06 | (A) pCAP24: 1.44 | (A) pCAP36: 1.25 | (A) pCAP47: 1.54 | (A) pCAP54: 1.54 | (A) pCAP60: 2.73 | (A) pCAP68: 2.22 | (A) pCAP83: 1.56 | (A) pCAP97: 2.45 DOUBTS OF THE COPYIST ABOUT THIS PICTURE: Panel A: the numbers over the bars are printed very small, rotated and blurred, so 3, 5, 6, 8 and 9 cannot be told apart with certainty. All values are best readings: pCAP1 0.87, pCAP2 0.53, pCAP3 0.59, pCAP4 0.59, pCAP5 0.60, pCAP6 0.75, pCAP23 1.06, pCAP24 1.44, pCAP36 1.25, pCAP47 1.54, pCAP54 1.54, pCAP60 2.73, pCAP68 2.22, pCAP83 1.56, pCAP97 2.45 / Panel A: the picture prints no measure with the numbers over the bars, so they are given as bare numbers / Panel A: numbers are also printed over the controls, which are not substances and are left out of lines. Best readings: NT 0.60, 60° 30'' 0.48, 60° 1' 0.37, 60° 3' 0.13, 60° 10' 0.05, MCF7 3.32, H1299TS 3.25
Extracts were prepared at a concentration of 750ng/μl and then reacted for 2 hours with different peptides. Plates coated with the different antibodies were then washed and blocked, and extracts pre-incubated either with or without peptides were added for two additional hours. After removal of extracts, plates were washed and incubated with HRP-conjugated anti-p53 antibody. Finally, HRP activity was quantified by optical density at 450nm. MCF7 cells (expressing WTp53) and H1299-tsp53^A135V cells, stably expressing a temperature sensitive p53 mutant that has mutant conformation at 37°C but WT conformation at 32°C [31], were used as positive controls for the WTp53 conformation (1620/240 ratio 5:1). […]

LPNPPERHH [pCAP-16] was tested, and the “Conform H1299” value was 2.

Test system: mutp53 in SK3 cell extract
Test: ELISA of mutp53 conformation, SK3
Format: biochemical, human
Details: score 0-6 compared to positive control
Source text: as §1
(§3) 96-well plates were coated using 3 different anti p53 monoclonal antibodies, PAb421, PAb240 and PAb1620. Wells were incubated overnight (ON) with 100μl Ab (5μg/ml) in room temp (RT). The liquid was discarded, and the wells were washed 3 times with PBS, 200 μl. Next, blocking with 5% BSA in PBS for 2 hours (RT) was performed, followed by 3 washes in PBS. Samples of mutant and WT p53 proteins (100 μl, 10 μg/ml), together with control peptides or with test peptides 1-326 (5μg /ml), were incubated for 1.5 hours, and then added to the wells for1 hour at RT. 4 washes with PBST were performed. Next, HRP conjugated αp53 antibody (10μg/ml HAF1355 (R&D)) were added to the wells and incubated at RT for 1 hour. Plates were washed 3 times in PBST and TMB substrate solution (50μl each well, Thermo, (Cat. No. ES001-1L-K)) was added and incubated at 37°C for 20 min. The reaction was stopped with 2M Sulfuric acid (50μl). The absorbance was measured at 450 nm with a spectrophotometer. Protein concentration was determined by dividing the absorb an each sample to by the absorbance of PAb421 samples.

Compared with FPGHTIH [pCAP-100], “DEDAKFRIRILMRR [pCAP-202, peptide with similarity to APAF1]” is lower in “Conform SK3” value: 3 for the first, 2 for the second.

Test system: mutp53 in BT549 cell extract
Test: ELISA of mutp53 conformation, BT549
Format: biochemical, human
Details: score 0-6 compared to positive control
Source text: as §1, §3

First: FPGHTIH [pCAP-100]
Second: myr-HSSHHHPTVQHRR [pCAP-257, myristoylated peptide, similarity to SIN3A]
The “Conform BT549” value of the first is lower: 1 for the first, 3 for the second.

In the case of “DEDAKFRIRILMRR [pCAP-202, peptide with similarity to APAF1]”, the “Conform BT549” value is reported as 3.

Test system: mutp53^R175H
Test: ELISA of mutp53 DNA binding (p53RE oligonucleotide), H1299-p53^R175H cell extract
Format: biochemical, human
Details: score 0-6 compared to positive control; mutp53 DNA binding
Procedure: as §2
(§4) Next, we assessed the ability of our selected peptides to restore sequence-specific DNA binding to mutp53. To that end we employed an ELISA kit (R&D) in which cell extracts containing p53 are reacted with a biotinylated p53RE oligonucleotide and then incubated in wells coated with anti-p53 antibody, which is expected to trap the p53 protein and its associated p53RE DNA. The amount of p53RE retained in each well via p53 binding is quantified by incubation with streptavidin-HRP. […] Again, extracts of MCF7 and H1299-tsp53^A135V cells served as positive controls for WTp53 DNA binding activity. […] Importantly, there was substantial overlap between the peptides that stabilized the WT conformation (Figure 2A) and those that increased specific DNA binding (Figure 2B), further reinforcing the conclusion that those peptides stabilize mutp53 in a functional state. This was not seen with the randomly selected peptides 1-6 (black bars).
For these experiments, a commercial p53/DNA binding kit of “R&D” (Cat-DYC1355-5 Lot-1273366FA) was used, in accordance with manufacturer guide lines. Briefly, 96 well plates we coated with anti-p53 antibody overnight. Cell extracts containing p53 are reacted with an oligonucleotide that contains a p53 consensus binding site (provided in the kit), labeled with Biotin, in the presence or absence (NT) of test peptides. […]

Compared with FPGHTIH [pCAP-100], “SPLQTPAAPGAAAGPALSPV [pCAP-7, synthesized peptide of the functional screen]” is lower in “DNA H1299” value: 3 for the first, 1 for the second.

“myr-HSSHHHPTVQHRR [pCAP-257, myristoylated peptide, similarity to SIN3A]” and LPNPPERHH [pCAP-16] are the same in “DNA H1299” value: 3 for the first, 3 for the second.

Test system: mutp53 in SK3 cell extract
Test: ELISA of mutp53 DNA binding (p53RE oligonucleotide), SK3
Format: biochemical, human
Details: score 0-6 compared to positive control
Procedure: as §4
For these experiments, a commercial p53/DNA binding kit of “R&D” (Cat-DYC1355-5 Lot-1273366FA) was used, in accordance with manufacturer guide lines. Briefly, 96 well plates we coated with anti-p53 antibody overnight. Cell extracts containing p53 are reacted with an oligonucleotide that contains a p53 consensus binding site (provided in the kit), labeled with Biotin, in the presence or absence (NT) of test peptides. WT p53 is expected to bind this DNA binding site as well as to the antibody coating the test wells of the plate. Excess p53 and oligos were washed away and streptavidin-HRP was used to quantify the amount of oligos in the well, which is proportional to the DNA bound by p53. TMB assay was performed to determine HRP (ES001-1L-K) levels (450nm).

FPGHTIH [pCAP-100] and LPNPPERHH [pCAP-16] are the same in “DNA SK3” value: 3 for the first, 3 for the second.

Test system: H1299 cells expressing mutp53^R175H
Test: Crystal violet viability assay, H1299
Format: cell-based
Details: score 0-6 compared to positive control, 48 h
Procedure: Cell extracts were added to ELISA plates coated with the indicated antibodies to allow mutp53 to react with the peptides and antibodies. αp53-HRP Ab was used for assessment of p53 levels. Numbers represent ratio of absorbance between the PAb1620 and PAb240 samples. All reads were normalized to the control PAb241 reading of each extract. MCF7 (WTp53) and H1299-mutp53^A135V (tsp53) cells were used as positive controls for the WTp53 conformation (1620/240 ratio equals or exceeds 5:1). […] 96 well plates were coated with anti-p53 antibody, cell extracts containing p53 were reacted with oligonucleotides that contain a p53RE consensus binding site, labeled with biotin, in the presence or absence (NT) of test peptides. Streptavidin-HRP is used to quantify the amount of oligos in the well. TMB assay was performed to determine bound mutp53 levels (450nm). MCF7 and the H1299-mutp53^A135V(TS) cells serve as positive controls for WTp53. C.and D. - Bar graphs illustrating the effect of various selected peptides on mut-p53 dependent expression on cell viability. […] D, ES2 cells expressing endogenous mutp53 (blue bars) and ES2 cells knocked out for p53 by CRISPR construct (light blue bars). Cell lines were treated with selected peptides, Cis-platinum was used as positive control for cell death. 48 hours after treatment, cells were washed with PBS, and the remaining attached cells were stained with Crystal violet and washed 4 times with PBS. Stained cells were dissolved in 10% acetic acid and plates were taken for optical density measurement at 595nM.
This simple assay measures the total number of cells, thus reflecting the combination of both cell death and growth arrest effects. […] After 48 hours of treatment cells were stained with crystal violet and OD at 595nm was determined.
Values on the Y-axis reflect the number of cells in the treated wells, normalized to the non-treated samples (NT; red bars).

FPGHTIH [pCAP-100] and “DEDAKFRIRILMRR [pCAP-202, peptide with similarity to APAF1]” are the same in “Viability H1299” value: 3 for the first, 3 for the second.

Compared with LPNPPERHH [pCAP-16], “FWTQSIKERKMLNEHDFER [pCAP-3, randomly selected peptide used as inert comparison]” is lower in “Viability H1299” value: 3 for the first, 1 for the second.

Test system: HOP62
Test: Crystal violet viability assay, HOP62
Format: cell-based, human
Details: score 0-6 compared to positive control, 48 h
Source text: (§5) We also performed a similar analysis on ES2 ovarian cancer cells, which express endogenous mp53^S241F, compared to ES2 cells in which p53 was stably knocked out using CRISPR/Cas9 (ES2 p53KO Figure S1F), to control for specificity for mutp53 (Figure 2D). In ES2 cells, too, some of the peptides caused a significant reduction in cell numbers, more prominent in the mutp53 expressing cells than in their p53KO counterparts. […] Overall, we performed this analysis on several different mutp53-expressing human cancer cell lines, and the results are summarized in Table S3. Based on this comprehensive picture, we reduced the number of most promising candidate lead peptides to 30. These peptides were then synthesized with an 8 arginine C-terminal tail for enhanced delivery across cell membranes (pCAPs 130-160); for clarity, peptides are referred to by their original number, with an R for poly arginine (see Table S3).
(§6) Cells were cultured in 96 wells plates with 2500-4000 cells/well. Serial dilutions of different peptides were added and the plates incubated for additional 48 h at 37°C. Then medium was removed and cell viability was determined by staining the cells with crystal violet (0.05%) in methanol/PBS (1:5, v/v), for 10 min, followed by 3 washes with PBS. 10% acetic acid was added to each well for 10 min. OD was determined at 595 nm.

Going from “LGIDEDEETETAPE [pCAP-6, randomly selected peptide used as inert comparison]” to “myr-HSSHHHPTVQHRR [pCAP-257, myristoylated peptide, similarity to SIN3A]”, the “Viability HOP62” value rises from 2 to 3.

First: DEDAKFRIRILMRR [pCAP-202, peptide with similarity to APAF1]
Second: LPNPPERHH [pCAP-16]
The “Viability HOP62” value of the first is lower: 2 for the first, 3 for the second.

With “FWTQSIKERKMLNEHDFER [pCAP-3, randomly selected peptide used as inert comparison]” the “Viability HOP62” value was 2.

Test system: ES2 ovarian cancer cells
Test: Crystal violet viability assay, ES2
Format: cell-based, human
Details: score 0-6 compared to positive control, 48 h
Procedure: as §2, §5, §6

With “EHDFEVRGDVVNGRNHQPK [pCAP-4, randomly selected peptide used as inert comparison]” the “Viability ES2” value was 2.

Test system: SK3
Test: Crystal violet viability assay, SK3
Format: cell-based, human
Details: score 0-6 compared to positive control, 48 h
Source text: as §5, §6

“myr-HSSHHHPTVQHRR [pCAP-257, myristoylated peptide, similarity to SIN3A]” and “DEDAKFRIRILMRR [pCAP-202, peptide with similarity to APAF1]” are the same in “Viability SK3” value: 3 for the first, 3 for the second.

Test system: WI38
Test: Crystal violet viability assay, WI38
Format: cell-based
Details: score 0-6 compared to positive control, 48 h
Procedure: as §6

In the case of “SPLQTPAAPGAAAGPALSPV [pCAP-7, synthesized peptide of the functional screen]”, the “Viability WI38” value is reported as 2.

Test system: EP156
Test: Crystal violet viability assay, EP156
Format: cell-based
Details: score 0-6 compared to positive control, 48 h
Source text: as §5, §6

“myr-HSSHHHPTVQHRR [pCAP-257, myristoylated peptide, similarity to SIN3A]” and LPNPPERHH [pCAP-16] are the same in “Viability EP156” value: 4 for the first, 4 for the second.

Test system: mutp53
Test: Summary score of peptide functional screens
Details: overall score over conformation, DNA binding, viability and PCR screens

Compared with FPGHTIH [pCAP-100], “LEVIYMI [pCAP-5, randomly selected peptide used as inert comparison]” is lower in SCORE: 19 for the first, 2 for the second.

Compared with “LGIDEDEETETAPE [pCAP-6, randomly selected peptide used as inert comparison]”, “SPLQTPAAPGAAAGPALSPV [pCAP-7, synthesized peptide of the functional screen]” is lower in SCORE: 4 for the first, 3 for the second.

Going from “myr-HSSHHHPTVQHRR [pCAP-257, myristoylated peptide, similarity to SIN3A]” to “DEDAKFRIRILMRR [pCAP-202, peptide with similarity to APAF1]”, the SCORE falls from 16 to 13.

First: EHDFEVRGDVVNGRNHQPK [pCAP-4, randomly selected peptide used as inert comparison]
Second: LPNPPERHH [pCAP-16]
The SCORE of the first is lower: 2 for the first, 22 for the second.

Going from “FWTQSIKERKMLNEHDFER [pCAP-3, randomly selected peptide used as inert comparison]” to “VWVHDSCHANLQNYRNYLP [pCAP-2, randomly selected peptide used as inert comparison]”, the SCORE falls from 4 to 2.
